We go through 15 compounds from ChEMBL document CHEMBL1157518, “New trypanocidal hybrid compounds from the association of hydrazone moieties and benzofuroxan heterocycle” (Bioorg Med Chem, 2008).

Series [1] has as its target Trypanothione reductase (Trypanosoma cruzi) (UniProt P28593). The series is described as follows: Inhibition of Trypanosoma cruzi recombinant trypanothione reductase at 40 uM by spectrophotometry.
Series [2] shares this target. Put plainly: Inhibition of Trypanosoma cruzi recombinant trypanothione reductase at 100 uM by spectrophotometry.
Series [3] addresses Cruzipain (Trypanosoma cruzi, UniProt P25779). The series is described as follows: Inhibition of Trypanosoma cruzi Tulahuen 2 epimastigote cruzipain by spectrophotometry.
The test system of series [4] is Trypanosoma cruzi. Put plainly: Antitrypanosomal activity against epimastigotes of Trypanosoma cruzi Tulahuen 2. The format is functional, organism-based.
Series [5] addresses Cruzipain (Trypanosoma cruzi) (UniProt P25779). Put plainly: Inhibition of Trypanosoma cruzi Tulahuen 2 epimastigote cruzipain at 100 uM by spectrophotometry.
The test system of series [6] is Trypanosoma cruzi. Put plainly: Antitrypanosomal activity against epimastigotes of Trypanosoma cruzi Tulahuen 2 at 25 uM relative to control. As to conditions: read-out: GI. The format is functional.
Series [7] relates to J774. The series is described as follows: Cytotoxicity against mouse J774 cells after 48 hrs by MTT assay. The format is cell-based. As to conditions: J774, 48 h.
Series [8] is described as follows: Selectivity index, ratio of IC50 for mouse J774 cells to IC50 for epimastigotes of Trypanosoma cruzi Tulahuen 2. The format is toxicity, cell-based. As to conditions: read-out: Ratio IC50.
Series [9] relates to Trypanosoma cruzi. The series is described as follows: Antitrypanosomal activity against epimastigotes of Trypanosoma cruzi CL Brener. The format is functional, organism-based.
Series [10] has as its target Trypanothione reductase (Trypanosoma cruzi) (UniProt P28593). Put plainly: Inhibition of Trypanosoma cruzi recombinant trypanothione reductase at […] by spectrophotometry.

The structures appear in SMILES notation. Bounds are passed on as bounds.

Sequence of Cruzipain (P25779 whole entry): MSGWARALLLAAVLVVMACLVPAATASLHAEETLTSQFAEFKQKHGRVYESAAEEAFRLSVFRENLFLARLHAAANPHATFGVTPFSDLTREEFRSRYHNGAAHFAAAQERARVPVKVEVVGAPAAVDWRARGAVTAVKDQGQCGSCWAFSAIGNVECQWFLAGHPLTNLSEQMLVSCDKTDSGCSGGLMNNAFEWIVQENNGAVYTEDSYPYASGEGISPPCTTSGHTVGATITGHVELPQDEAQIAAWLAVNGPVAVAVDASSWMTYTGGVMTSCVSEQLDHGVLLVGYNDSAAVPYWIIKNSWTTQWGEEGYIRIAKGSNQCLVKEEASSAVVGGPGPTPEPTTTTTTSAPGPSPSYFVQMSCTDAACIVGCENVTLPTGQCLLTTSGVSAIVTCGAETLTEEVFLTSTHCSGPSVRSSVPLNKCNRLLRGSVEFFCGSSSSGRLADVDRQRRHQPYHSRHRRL
Sequence of Trypanothione reductase (Trypanosoma cruzi) (P28593 whole entry, looked up): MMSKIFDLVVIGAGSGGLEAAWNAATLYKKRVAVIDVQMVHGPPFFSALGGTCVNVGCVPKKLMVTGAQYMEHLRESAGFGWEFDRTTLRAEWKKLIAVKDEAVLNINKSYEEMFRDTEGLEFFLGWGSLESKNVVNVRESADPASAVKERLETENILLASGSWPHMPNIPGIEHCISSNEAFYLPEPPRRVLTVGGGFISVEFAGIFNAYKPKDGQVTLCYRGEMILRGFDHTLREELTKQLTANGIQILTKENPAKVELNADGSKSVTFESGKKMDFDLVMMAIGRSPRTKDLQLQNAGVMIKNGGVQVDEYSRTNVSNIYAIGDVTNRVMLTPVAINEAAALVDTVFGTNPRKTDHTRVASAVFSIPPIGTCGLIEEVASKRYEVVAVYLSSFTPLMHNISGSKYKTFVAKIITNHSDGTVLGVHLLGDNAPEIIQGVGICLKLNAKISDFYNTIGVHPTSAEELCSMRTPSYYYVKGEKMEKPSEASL
Sequence of Cruzipain (Trypanosoma cruzi) (P25779 123-467 limits assumed): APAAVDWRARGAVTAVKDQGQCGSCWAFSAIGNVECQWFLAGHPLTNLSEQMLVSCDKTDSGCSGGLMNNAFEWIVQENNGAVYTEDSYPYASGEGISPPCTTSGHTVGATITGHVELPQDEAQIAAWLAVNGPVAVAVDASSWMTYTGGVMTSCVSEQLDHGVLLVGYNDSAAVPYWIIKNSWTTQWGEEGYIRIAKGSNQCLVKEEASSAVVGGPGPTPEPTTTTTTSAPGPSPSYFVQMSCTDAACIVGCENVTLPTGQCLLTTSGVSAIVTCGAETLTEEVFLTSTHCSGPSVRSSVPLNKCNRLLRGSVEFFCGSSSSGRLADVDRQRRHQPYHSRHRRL

For `NC(=S)N/N=C/c1ccc2no[n+]([O-])c2c1`, the inhibition in series [1] is 9%; in [2] it was 19%; in [5], 7%. Moreover, the values for the IC50 in [3] and in series [4] were more than 100 µM and more than 25 µM, respectively. For the same compound, the inhibition of growth at 25 µM in series [6] was determined as 5%.
As to `[O-][n+]1onc2ccc(/C=N/N=C/c3cc(Br)ccc3O)cc21`, the IC50 in series [7] amounted to 84 µM; in [3], 73 µM; in series [4], 25 µM. Further, the inhibition of growth at 25 µM in series [6] was 48%. Further, the selectivity ratio in series [8] is less than 3.4.
Regarding `O=Cc1ccc(OCc2ccc3no[n+]([O-])c3c2)cc1`, the IC50 in series [7] came to 60 µM; in series [4], 8.7 µM. The inhibition in series [2] turned out to be 19%. Also, in series [6], the inhibition of growth at 25 µM was found to be 98%. For the same compound, in [8], the selectivity ratio stood at 6.9.
Consider `N=C(N)N/N=C/c1ccc(OCc2ccc3no[n+]([O-])c3c2)cc1`, for which the IC50 in [9] is 38.2 µM; in series [7] it was less than 50 µM; in series [3], 32 µM; in series [4], more than 25 µM. The results for the inhibition in [1] and in series [2] were 30% and 50%, respectively. For the same compound, in series [6], the inhibition of growth at 25 µM stood at 40%. The selectivity ratio in series [8] was less than 2.
Consider `[O-][n+]1onc2ccc(/C=N/N=C/c3ccc(O)cc3)cc21`, for which the IC50 in [3] was found to be 100 µM; in series [4], 25 µM. Further, the inhibition of growth at 25 µM in series [6] was determined as 52%.
As for `CC(=O)N1CCN(c2ccc(OCC3COC(Cn4ccnc4)(c4ccc(Cl)cc4Cl)O3)cc2)CC1` (centres undefined) [KETOCONAZOLE], the half-maximal inhibitory concentration (IC50) in [7] was less than 50 µM. In [6], the inhibition of growth at 25 µM was 100%. Also, the selectivity ratio in series [8] was less than 5.
As to `[O-][n+]1onc2ccc(/C=N/N=C/c3ccccc3O)cc21`, the IC50 in series [3] was 68 µM; in series [4], more than 25 µM. For the same compound, the inhibition of growth at 25 µM in series [6] turned out to be 17%.
On to `N=C(N/N=C/c1ccc(O)cc1)SCc1ccc2no[n+]([O-])c2c1`, for which the IC50 in [7] came to 142 µM; in series [4], 6.8 µM. In addition, the inhibition in series [2] came to 19%. Besides, the inhibition of growth at 25 µM in [6] was 100%. Also, the selectivity ratio in series [8] is 20.9.
On to `NC(=O)N/N=C/c1ccc(OCc2ccc3no[n+]([O-])c3c2)cc1`, for which the figures for the inhibition in [10], in series [2] and in [5] were 0%, 0% and 23%, respectively. For the same compound, the IC50 in [3] was more than 100 µM; in series [4], more than 25 µM. Moreover, in series [6], the inhibition of growth at 25 µM came out at 25%.
`C=CCNC(=S)N/N=C/c1ccc2no[n+]([O-])c2c1`: the inhibition in [1] was found to be 13%; in series [2], 9%; in series [5], 36%. Besides, the results for the IC50 in series [3] and in series [4] were more than 100 µM and more than 25 µM, respectively. Besides, the inhibition of growth at 25 µM in series [6] was 35%.
`NC(=S)N/N=C/c1ccc(OCc2ccc3no[n+]([O-])c3c2)cc1`: the inhibition in series [10] and in series [2] was 0% throughout. Besides, the half-maximal inhibitory concentration (IC50) was 19.8 µM in series [9], 400 µM in series [7] and 43 µM in series [3]. For the same compound, in series [6], the inhibition of growth at 25 µM stood at 70%. In addition, the selectivity ratio in [8] was found to be 26.7.
Turning to `CN(C/C=C/C#CC(C)(C)C)Cc1cccc2ccccc12` [TERBINAFINE], the inhibition of growth at 25 µM in series [6] amounted to 100%. Besides, in series [8], the selectivity ratio is 5.1.
Take `O=C(Cn1ccnc1[N+](=O)[O-])NCc1ccccc1` [BENZNIDAZOLE]: the inhibition of growth at 25 µM in series [6] came to 100%.
In the case of `[O-][n+]1onc2ccc(/C=N/NC(=S)Nc3ccccc3)cc21`, the inhibition in series [10] and in [2] was 0% in each case. Further, the IC50 in [9] was 2.6 µM; in series [7] it was less than 50 µM; in series [3], 78 µM; in [4], 8.9 µM. In addition, in series [6], the inhibition of growth at 25 µM is 93%. Besides, in series [8], the selectivity ratio is less than 5.6.
Consider `CC1CS(=O)(=O)CCN1/N=C/c1ccc([N+](=O)[O-])o1` (centres undefined) [NIFURTIMOX], for which the inhibition of growth at 25 µM in series [6] worked out at 100%.
